Assay results: ChEMBL document CHEMBL1146987, “Ketopiperazine-based renin inhibitors: optimization of the "C" ring” (Bioorg Med Chem Lett, 2006)

Tests used:
CYP3A4 = CYP3A4 (Homo sapiens, UniProt P08684); test: Inhibition of CYP3A4 at 3 uM; format: ADME
Cytochrome P450 3A4 = Cytochrome P450 3A4 (Homo sapiens, UniProt P08684); test: Inhibition of CYP3A4 using BFC fluorogenic substrate; format: ADME
Renin = biological target: T1, Renin (Homo sapiens, UniProt P00797); test: Inhibition of renin
T1 sequence (P00797 whole entry): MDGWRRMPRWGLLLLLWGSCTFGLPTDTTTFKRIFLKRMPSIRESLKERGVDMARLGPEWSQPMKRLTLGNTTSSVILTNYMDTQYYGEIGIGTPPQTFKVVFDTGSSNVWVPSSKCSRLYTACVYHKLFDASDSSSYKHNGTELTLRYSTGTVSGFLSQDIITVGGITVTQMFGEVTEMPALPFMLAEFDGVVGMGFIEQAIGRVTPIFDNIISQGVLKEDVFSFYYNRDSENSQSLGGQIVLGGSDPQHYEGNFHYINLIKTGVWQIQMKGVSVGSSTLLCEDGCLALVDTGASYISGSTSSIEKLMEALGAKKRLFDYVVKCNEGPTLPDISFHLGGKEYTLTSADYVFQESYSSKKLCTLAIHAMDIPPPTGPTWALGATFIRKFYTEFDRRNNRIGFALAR

Sequence of Cytochrome P450 3A4 (P08684 whole entry): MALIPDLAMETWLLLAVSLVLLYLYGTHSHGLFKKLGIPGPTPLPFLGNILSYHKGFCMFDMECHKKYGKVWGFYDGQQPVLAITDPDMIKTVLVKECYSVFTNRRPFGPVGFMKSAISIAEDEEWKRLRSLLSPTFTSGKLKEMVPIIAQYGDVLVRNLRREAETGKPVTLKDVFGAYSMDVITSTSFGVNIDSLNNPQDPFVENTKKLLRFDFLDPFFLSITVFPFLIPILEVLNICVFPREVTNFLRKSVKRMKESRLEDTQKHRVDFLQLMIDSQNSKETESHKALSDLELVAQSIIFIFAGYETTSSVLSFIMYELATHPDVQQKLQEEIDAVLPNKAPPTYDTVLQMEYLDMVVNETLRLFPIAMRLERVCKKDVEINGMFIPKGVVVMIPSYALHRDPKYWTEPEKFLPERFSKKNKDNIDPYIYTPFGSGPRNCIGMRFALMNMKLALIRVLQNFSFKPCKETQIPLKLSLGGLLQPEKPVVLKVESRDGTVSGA
Sequence of CYP3A4 (P08684 whole entry): as above

inhibition at 3 µM (CYP3A4)	IC50 (Cytochrome P450 3A4)	IC50 (Renin)	SMILES
96%	0.012 µM		COCCCN1CCCc2ccc(OC[C@H]3CNCC(=O)N3c3ccc(OCCCOCc4ccccc4OC)cc3)cc21
95%	0.014 µM		COCCCN1C(=O)COc2ccc(SC[C@H]3CNCC(=O)N3c3ccc(OCCCOCc4ccccc4OC)cc3)cc21
87%			COc1ccccc1COCCCOc1ccc(N2C(=O)CNC[C@@H]2COc2ccc3c(c2)N(CCOC(C)=O)CCC3)cc1
92%	0.054 µM	0.55 µM	COc1ccccc1COCCCOc1ccc(N2C(=O)CNC[C@@H]2COc2ccc3c(c2)N(CCOC(=O)C(C)C)CCC3)cc1
	10 µM	0.45 µM	COc1ccccc1COCCCOc1ccc(N2C(=O)CNC[C@@H]2COc2ccc3c(c2)N(CCC(=O)O)CCC3)cc1
96%			CCC(=O)OCCN1CCCc2ccc(OC[C@H]3CNCC(=O)N3c3ccc(OCCCOCc4ccccc4OC)cc3)cc21
92%	0.082 µM	0.00029 µM	COc1ccccc1COCCCOc1ccc(N2C(=O)CNC[C@@H]2COc2ccc3c(c2)N(CCNC(C)=O)CCC3)cc1
	0.018 µM	0.004 µM	COc1ccccc1COCCCOc1ccc(N2C(=O)CNC[C@@H]2COc2ccc3c(c2)N(CCN(C)C(C)=O)CCC3)cc1
71%	0.455 µM		COc1ccccc1COCCCOc1ccc(N2C(=O)CNC[C@@H]2COc2ccc3c(c2)N(CCCO)CCC3)cc1
95%		0.00068 µM	COCCCN1C(=O)COc2ccc(OC[C@H]3CNCC(=O)N3c3ccc(OCCCOCc4ccccc4OC)cc3)cc21
	0.042 µM	0.606 µM	COc1ccccc1COCCCOc1ccc(N2C(=O)CNC[C@@H]2COc2ccc3c(c2)N(CCN2CCCC2=O)CCC3)cc1
	3.79 µM	> 1 µM	COc1ccccc1COCCCOc1ccc(N2C(=O)CNC[C@@H]2COc2ccc3c(c2)N(CCN2CCOC2=O)CCC3)cc1
	15 µM	1.2 µM	COc1ccccc1COCCCOc1ccc(N2C(=O)CNC[C@@H]2CSc2ccc3c(c2)N(CC(=O)O)C(=O)CO3)cc1
92%	0.035 µM		COCCCN1C(=O)CCc2ccc(OC[C@H]3CNCC(=O)N3c3ccc(OCCCOCc4ccccc4OC)cc3)cc21
	25 µM	0.364 µM	COc1ccccc1COCCCOc1ccc(N2C(=O)CNC[C@@H]2COc2ccc3c(c2)N(CC(=O)O)C(=O)CO3)cc1
